Measurements from ChEMBL document CHEMBL2034905, “Synthesis of benzimidazolyl-1,3,4-oxadiazol-2ylthio-N-phenyl (benzothiazolyl) acetamides as antibacterial, antifungal and antituberculosis agents” (Eur J Med Chem, 2012).
Converted amounts (≈) assume the structure as drawn.

What was measured:
Bacillus cereus [1] = experiment: Antibacterial activity against Bacillus cereus MTCC 430 by agar streak dilution method; format: functional
Pseudomonas aeruginosa [2] = experiment: Antibacterial activity against Pseudomonas aeruginosa MTCC 741 at 100 ug/disc by paper disc diffusion technique; format: functional; details: read-out: IZ
Staphylococcus aureus [3] = experiment: Antibacterial activity against Staphylococcus aureus MTCC 96 at 100 ug/disc by paper disc diffusion technique; format: functional; details: read-out: IZ
Proteus vulgaris [4] = experiment: Antibacterial activity against Proteus vulgaris MTCC 1771 at 100 ug/disc by paper disc diffusion technique; format: functional; details: read-out: IZ
[5] = test system: Mycobacterium tuberculosis; experiment: Antituberculosis activity against Mycobacterium tuberculosis H37Rv by Lowenstein-Jensen method; format: functional
Aspergillus fumigatus [6] = experiment: Antifungal activity against Aspergillus fumigatus MTCC 343 by agar streak dilution method; format: functional
Aspergillus niger [7] = experiment: Antifungal activity against Aspergillus niger MTCC 282 at 100 ug/disc by paper disc diffusion technique; format: functional; details: read-out: IZ
Aspergillus clavatus [8] = experiment: Antifungal activity against Aspergillus clavatus MTCC 1323 by agar streak dilution method; format: functional
[9] = Lipophilicity, log P of the compound; format: physicochemical; details: octanol/water
Klebsiella pneumoniae [10] = experiment: Antibacterial activity against Klebsiella pneumoniae MTCC 109 at 100 ug/disc by paper disc diffusion technique; format: functional; details: read-out: IZ
Proteus vulgaris [11] = experiment: Antibacterial activity against Proteus vulgaris MTCC 1771 by agar streak dilution method; format: functional
Aspergillus clavatus [12] = experiment: Antifungal activity against Aspergillus clavatus MTCC 1323 at 100 ug/disc by paper disc diffusion technique; format: functional; details: read-out: IZ
Salmonella typhi [13] = experiment: Antibacterial activity against Salmonella typhi MTCC 733 by agar streak dilution method; format: functional, Salmonella enterica subsp. enterica serovar Typhi; details: Salmonella enterica
Aspergillus fumigatus [14] = experiment: Antifungal activity against Aspergillus fumigatus MTCC 343 at 100 ug/disc by paper disc diffusion technique; format: functional; details: read-out: IZ
[15] = test system: Mycobacterium tuberculosis; experiment: Antituberculosis activity against Mycobacterium tuberculosis H37Rv by BACTEC MGIT method; format: functional
Shigella flexneri [16] = experiment: Antibacterial activity against Shigella flexneri MTCC 1457 at 100 ug/disc by paper disc diffusion technique; format: functional; details: read-out: IZ
Salmonella typhi [17] = experiment: Antibacterial activity against Salmonella typhi MTCC 733 at 100 ug/disc by paper disc diffusion technique; format: functional, Salmonella enterica subsp. enterica serovar Typhi; details: Salmonella enterica, read-out: IZ
Shigella flexneri [18] = experiment: Antibacterial activity against Shigella flexneri MTCC 1457 by agar streak dilution method; format: functional
Pseudomonas aeruginosa [19] = experiment: Antibacterial activity against Pseudomonas aeruginosa MTCC 741 by agar streak dilution method; format: functional
Staphylococcus aureus [20] = experiment: Antibacterial activity against Staphylococcus aureus MTCC 96 by agar streak dilution method; format: functional
Candida albicans [21] = experiment: Antifungal activity against Candida albicans MTCC 183 by agar streak dilution method; format: functional
Bacillus cereus [22] = experiment: Antibacterial activity against Bacillus cereus MTCC 430 at 100 ug/disc by paper disc diffusion technique; format: functional; details: read-out: IZ
Candida albicans [23] = experiment: Antifungal activity against Candida albicans MTCC 183 at 100 ug/disc by paper disc diffusion technique; format: functional; details: read-out: IZ
Klebsiella pneumoniae [24] = experiment: Antibacterial activity against Klebsiella pneumoniae MTCC 109 by agar streak dilution method; format: functional
Aspergillus niger [25] = experiment: Antifungal activity against Aspergillus niger MTCC 282 by agar streak dilution method; format: functional
[26] = test system: Mycobacterium tuberculosis; experiment: Antituberculosis activity against Mycobacterium tuberculosis H37Rv at 6.25 ug/ml by Lowenstein-Jensen method; format: functional
Escherichia coli [27] = experiment: Antibacterial activity against Escherichia coli MTCC 739 at 100 ug/disc by paper disc diffusion technique; format: functional; details: read-out: IZ
Escherichia coli [28] = experiment: Antibacterial activity against Escherichia coli MTCC 739 by agar streak dilution method; format: functional
[29] = test system: Mycobacterium tuberculosis; experiment: Antituberculosis activity against Mycobacterium tuberculosis H37Rv at 6.25 ug/ml by BACTEC MGIT method; format: functional

SMILES	MIC (Bacillus cereus [1])	zone of inhibition at 100 µg/disc (Pseudomonas aeruginosa [2])	zone of inhibition at 100 µg/disc (Staphylococcus aureus [3])	zone of inhibition at 100 µg/disc (Proteus vulgaris [4])	MIC [5]	MIC (Aspergillus fumigatus [6])	zone of inhibition at 100 µg/disc (Aspergillus niger [7])	MIC (Aspergillus clavatus [8])	logP [9]	zone of inhibition at 100 µg/disc (Klebsiella pneumoniae [10])	MIC (Proteus vulgaris [11])	zone of inhibition at 100 µg/disc (Aspergillus clavatus [12])	MIC (Salmonella typhi [13])	zone of inhibition at 100 µg/disc (Aspergillus fumigatus [14])	MIC [15]	zone of inhibition at 100 µg/disc (Shigella flexneri [16])	zone of inhibition at 100 µg/disc (Salmonella typhi [17])	MIC (Shigella flexneri [18])	MIC (Pseudomonas aeruginosa [19])	MIC (Staphylococcus aureus [20])	further results
O=C(CSc1nnc(Cn2cnc3ccccc32)o1)Nc1nc2ccccc2s1	100 µg/mL (≈ 237 µM)	12 mm	15 mm	17 mm	500 µg/mL (≈ 1180 µM)	100 µg/mL (≈ 237 µM)	< 10 mm	100 µg/mL (≈ 237 µM)	3.69	< 10 mm	100 µg/mL (≈ 237 µM)	< 10 mm	100 µg/mL (≈ 237 µM)	< 10 mm	> 6.25 µg/mL	13 mm	< 10 mm	100 µg/mL (≈ 237 µM)	100 µg/mL (≈ 237 µM)	50 µg/mL (≈ 118 µM)	MIC (Candida albicans [21]): 100 µg/mL (≈ 237 µM); zone of inhibition at 100 µg/disc (Bacillus cereus [22]): 14 mm; zone of inhibition at 100 µg/disc (Candida albicans [23]): 13 mm; MIC (Klebsiella pneumoniae [24]): 100 µg/mL (≈ 237 µM); MIC (Aspergillus niger [25]): 100 µg/mL (≈ 237 µM); inhibition at 6.25 µg/mL [26]: 94%; zone of inhibition at 100 µg/disc (Escherichia coli [27]): 15 mm; MIC (Escherichia coli [28]): 100 µg/mL (≈ 237 µM)
N#Cc1ccc2nc(NC(=O)CSc3nnc(Cn4cnc5ccccc54)o3)sc2c1	50 µg/mL (≈ 112 µM)	15 mm	24 mm	19 mm	100 µg/mL (≈ 223 µM)	50 µg/mL (≈ 112 µM)	18 mm	100 µg/mL (≈ 223 µM)	3.72	25 mm	50 µg/mL (≈ 112 µM)	18 mm	100 µg/mL (≈ 223 µM)	22 mm	> 6.25 µg/mL	21 mm	17 mm	50 µg/mL (≈ 112 µM)	50 µg/mL (≈ 112 µM)	6.25 µg/mL (≈ 14 µM)	MIC (Candida albicans [21]): 100 µg/mL (≈ 223 µM); zone of inhibition at 100 µg/disc (Bacillus cereus [22]): 22 mm; zone of inhibition at 100 µg/disc (Candida albicans [23]): 13 mm; MIC (Klebsiella pneumoniae [24]): 25 µg/mL (≈ 55.9 µM); MIC (Aspergillus niger [25]): 50 µg/mL (≈ 112 µM); inhibition at 6.25 µg/mL [26]: 95%; zone of inhibition at 100 µg/disc (Escherichia coli [27]): 24 mm; MIC (Escherichia coli [28]): 25 µg/mL (≈ 55.9 µM)
O=C(CSc1nnc(Cn2cnc3ccccc32)o1)Nc1nc2ccc(I)cc2s1	25 µg/mL (≈ 45.6 µM)	14 mm	22 mm	26 mm	200 µg/mL (≈ 365 µM)	100 µg/mL (≈ 182 µM)	14 mm	100 µg/mL (≈ 182 µM)	5.05	14 mm	12.5 µg/mL (≈ 22.8 µM)	14 mm	100 µg/mL (≈ 182 µM)	< 10 mm	> 6.25 µg/mL	22 mm	16 mm	25 µg/mL (≈ 45.6 µM)	100 µg/mL (≈ 182 µM)	12.5 µg/mL (≈ 22.8 µM)	MIC (Candida albicans [21]): 100 µg/mL (≈ 182 µM); zone of inhibition at 100 µg/disc (Bacillus cereus [22]): 23 mm; zone of inhibition at 100 µg/disc (Candida albicans [23]): 19 mm; MIC (Klebsiella pneumoniae [24]): 100 µg/mL (≈ 182 µM); MIC (Aspergillus niger [25]): 100 µg/mL (≈ 182 µM); inhibition at 6.25 µg/mL [26]: 96%; zone of inhibition at 100 µg/disc (Escherichia coli [27]): 15 mm; MIC (Escherichia coli [28]): 50 µg/mL (≈ 91.2 µM)
CC[C@@H](CO)NCCN[C@@H](CC)CO [ETHAMBUTOL]															3.12 µg/mL (≈ 15.3 µM)						inhibition at 6.25 µg/mL [29]: 99%
Cc1ccc(NC(=O)CSc2nnc(Cn3cnc4ccccc43)o2)cc1	100 µg/mL (≈ 264 µM)	14 mm	11 mm	14 mm	100 µg/mL (≈ 264 µM)	100 µg/mL (≈ 264 µM)	< 10 mm	100 µg/mL (≈ 264 µM)	2.98	< 10 mm	100 µg/mL (≈ 264 µM)	12 mm	100 µg/mL (≈ 264 µM)	< 10 mm	> 6.25 µg/mL	< 10 mm	17 mm	100 µg/mL (≈ 264 µM)	100 µg/mL (≈ 264 µM)	100 µg/mL (≈ 264 µM)	MIC (Candida albicans [21]): 100 µg/mL (≈ 264 µM); zone of inhibition at 100 µg/disc (Bacillus cereus [22]): 13 mm; zone of inhibition at 100 µg/disc (Candida albicans [23]): 14 mm; MIC (Klebsiella pneumoniae [24]): 100 µg/mL (≈ 264 µM); MIC (Aspergillus niger [25]): 100 µg/mL (≈ 264 µM); inhibition at 6.25 µg/mL [26]: 95%; zone of inhibition at 100 µg/disc (Escherichia coli [27]): 14 mm; MIC (Escherichia coli [28]): 100 µg/mL (≈ 264 µM)
